Measured values from patent US20250170252A1, “QUINONE PROTECTED FORMS AND CONJUGATES” (CAMBRIDGE ENTERPRISE LIMITED, priority 2022, published 2025).

Experiments:
[1] = In vitro redox-cycling ability, phenol red/horseradish peroxidase assay; format: biochemical; settings: HRP/phenol-red reporter assay, absorbance at 610 nm; up to 25 μM
Description: In vitro redox cycling capability of compounds was assessed by phenol red/horseradish peroxidase (HRP) assay by adaption of a previously described protocol (Assay Drug Dev. Technol., 2008, 6, 505-518). Briefly, stocks were prepared as follows: (1) DTT to a concentration of 2.4 μM in PBS pH 7.4 buffer; (2) compound stocks in PBS pH 7.4 buffer to 3× the desired concentration by 1000× dilution of DMSO stocks; (3) a stock of phenol-red-HRP detection reagent containing 300 μg/mL phenol red and 180 μg/mL HRP enzyme in PBS pH 7.4 buffer; (4) a stock of 1 M NaOH in water; (5) a stock of 100 μM H2O2 in PBS prepared by addition of a 30% solution of H2O2 in water into 1000 μL of PBS. Into each well of a 96 well clear flat-bottomed plate was then added 40 μL of compound stock in PBS followed by 40 μL of DTT stock, followed immediately by 40 μL of phenol-red-HRP reagent. A positive control with 100 μM H2O2 added in place of compound was included. The plate was incubated in the dark at room temperature for 15 min. Following this 20 μL of 1 M NaOH was added to each well to terminate the reaction. Absorbance was immediately measured at 610 nm (MiniMax i3x Imager, Molecular Devices). Absorbance of treated wells was normalised to control wells treated with PBS only (zero redox cycling). All readings were performed in triplicate and error bars display standard error of the mean.

[2] = tested on: SKBR3 (breast cancer cell line); experiment: Viability assay (CellTiter-Blue), SKBR3; format: cell-based; settings: Homo sapiens, SK-BR-3
Description: Assays assessing cytotoxicity of β-lapachone and derivatives were performed by CellTiter-Blue assay (Promega) according to the manufacturer's instructions. Briefly, adherent cancer-cell lines were plated at 20,000 cells/well in 96 well plates or suspension cell lines were plated at a concentration of 2×10^5 cells/mL in 24 well plates. Compound stocks in media were made by dilution of DMSO stocks containing the compound of interest to obtain a final in-plate DMSO concentration of only 0.1%. Incubation was performed for 48 h. Following incubation, media was replaced with media containing CellTiter-Blue (Promega) in 1:10 dilution and the plates were incubated for 1.5-4 h. The fluorescence of the plates was recorded (excitation 555 nm, emission 585 nm, […] Reader, Molecular Devices). Cell viability was calculated by division of the fluorescence intensity of treated wells by that of the calculated average fluorescence intensity of replicate negative control wells containing cells with 0.1% DMSO only. Values and reported error bars represent the mean and standard error of the mean of three triplicate repeats for each concentration tested.

[3] = tested on: Panc-1 pancreatic cancer cell line; experiment: CellTiter Glo viability assay, Panc-1; format: cell-based; settings: Homo sapiens; Panc-1, β-lapachone alone, 48 hours; read-out: IC50
Description: For CellTiter Glo viability assays, 10,000 cells per well were plated on Day 1 and were allowed to adhere to the plate surface for 24 hours. Optimized concentration ranges of prodrugs were determined and made via serial dilution. […] Cells were incubated with compound for 48 hours and viability was assessed on Day 4 using the CellTiter Glo Viability assay which measures metabolically active cells by quantifying the amount of ATP present.
Panc-1 cells were obtained from Tony Kouzarides' lab in the Gurdon Institute at the University of Cambridge and put into culture at passage 10 containing DMEM media (Gibco) supplemented with 1% Pen-Strep antibiotic (Gibco), 1% L-glutamine, and 10% fetal bovine serum (FBS, sterile-filtered). Aspc-1 cells were bought commercially from the American Type Culture Collection (ATCC) and put into culture containing RPMI 1640 media (Gibco) supplemented with 1% Pen-Strep antibiotic (Gibco), 1% L-glutamine, and 20% fetal bovine serum (FBS, sterile-filtered). All cell lines were started at passage 10 and passaged every 3 days by centrifuging at 1000 rpm for 4 minutes.

[4] = tested on: ovine blood; experiment: Methaemoglobin analysis in sheep's blood; format: cell-based; settings: after 1 h of incubation
Description: Defibrinated Oxoid™ sheep's blood (ThermoScientific) was diluted to a 5% v/v suspension in PBS pH 7.4. In a 96 well microtiter plate, 150 μL of blood suspension was added to 50 μL of serially diluted compound in PBS containing a 4× stock of each compound of interest. Serial dilution of compounds from DMSO stocks into PBS was performed to achieve an in-plate DMSO concentration of 0.1%. PBS buffer alone was used as a negative control. Three replicates were performed for each compound concentration analysed. The plate was incubated for the specified time at 37° C. The plate was then centrifuged at 3,500 rpm for 5 min. The supernatant was removed and cells lysed by resuspension in 100 μL of a solution of Triton-X-100 (1%) in PBS. Following this 80 μL of lysed cell contents were transferred to a second microtiter plate for UV measurement. To determine methaemoglobin increase, UV absorbance was measured immediately at 630 nm (MiniMax i3x Imager, Molecular Devices). Methaemoglobin increase was determined by (A630−A^0630)/(A^0630)×100, where A630 is the absorbance of the test well at 630 nm, and A^0630 is the absorbance of the negative control at 630 nm. Mean values and standard error of the mean of three independent replicates are plotted.

[5] = target: T1, 5-LO (Homo sapiens, UniProt P09917); settings: previous work, Chem. Sci. 2018; cited from earlier work
T1 sequence (P09917 1-674): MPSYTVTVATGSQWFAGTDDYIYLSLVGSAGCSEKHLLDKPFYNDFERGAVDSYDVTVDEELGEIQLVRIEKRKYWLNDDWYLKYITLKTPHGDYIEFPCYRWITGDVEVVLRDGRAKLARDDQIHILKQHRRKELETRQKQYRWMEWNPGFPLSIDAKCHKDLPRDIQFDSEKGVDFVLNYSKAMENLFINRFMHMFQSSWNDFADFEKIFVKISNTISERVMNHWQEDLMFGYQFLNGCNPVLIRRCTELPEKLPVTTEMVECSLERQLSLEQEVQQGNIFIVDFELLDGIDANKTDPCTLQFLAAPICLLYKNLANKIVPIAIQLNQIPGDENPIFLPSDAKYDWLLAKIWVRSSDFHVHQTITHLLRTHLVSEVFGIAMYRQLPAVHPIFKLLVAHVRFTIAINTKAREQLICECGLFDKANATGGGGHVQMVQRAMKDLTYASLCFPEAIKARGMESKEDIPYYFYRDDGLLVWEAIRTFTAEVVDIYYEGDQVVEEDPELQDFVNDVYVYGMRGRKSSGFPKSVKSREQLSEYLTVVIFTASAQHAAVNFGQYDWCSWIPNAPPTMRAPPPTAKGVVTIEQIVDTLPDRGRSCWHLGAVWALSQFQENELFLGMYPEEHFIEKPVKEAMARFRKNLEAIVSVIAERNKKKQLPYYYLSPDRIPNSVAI

CC1(C)CCC2=C(O1)c1ccccc1C(=O)C2=O [Compound 1, β-lapachone, reference compound]
redox activity (in vitro redox-cycling capability) [1]: saturates the assay above 10 μM concentration | IC50 [2]: 2800 nM | IC50 [3]: 2040 nM | lowest dose concentration at which methaemoglobin formation is detectable [4]: 10 µM | inhibition of 5-LO [5]: strongly inhibits
